The values below come from US20230022157A1 (Achillion Pharmaceuticals, Inc., priority 2018, published 2023).

For one assay, the target named is T1, Human Factor D (Homo sapiens, UniProt P00746).
T1 construct: purified from human serum; purchased Complement Technology, Inc; host or cells: human serum (natural protein, not recombinant)
T1 sequence (P00746 26-253): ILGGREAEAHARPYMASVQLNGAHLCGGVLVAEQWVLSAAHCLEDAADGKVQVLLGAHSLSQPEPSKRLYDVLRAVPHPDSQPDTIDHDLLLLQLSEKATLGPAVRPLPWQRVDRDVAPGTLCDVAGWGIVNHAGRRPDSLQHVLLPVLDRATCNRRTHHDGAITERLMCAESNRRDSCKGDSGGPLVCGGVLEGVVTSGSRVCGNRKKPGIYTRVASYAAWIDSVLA
The experiment in a line: Human Factor D Assay. It is filed as biochemical. Particulars: Human Factor D 80 nM, substrate Z-L-Lys-SBzl, assay of Example 3; read-out: IC50 (Stars). The procedure:
Human Factor D (purified from human serum, Complement Technology, Inc.) at 80 nM final concentration is incubated with test compound at various concentrations for 5 min at room temperature in 50 mM Tris, 1M NaCl, pH 7.5. A synthetic substrate Z-L-Lys-SBzl and DTNB (Ellman's reagent) are added to final concentrations of 100 μM each. […] IC50 values are calculated by nonlinear regression of complement Factor D reaction rates as a function of test compound concentration.
For the compound `CC(=O)c1nn(CC(=O)N2[C@H](C(=O)N[C@H](C)CCc3ccccc3)C[C@@]3(C)C[C@@H]23)c2ccc(-c3cnc(C)nc3)cc12` [Compound 13, (1R,3S,5R)-2-(2-(3-Acetyl-5-(2-methylpyrimidin-5-yl)-1H-indazol-1-yl)acetyl)-5-methyl-N—((R)-4-phenylbutan-2-yl)-2-azabicyclo[3.1.0]hexane-3-carboxamide], the IC50 (commonly the midpoint of a concentration-inhibition curve) is less than 1000 nM.

`CC(=O)c1nn(CC(=O)N2[C@H](C(=O)N[C@H](C)CC(C)C)C[C@@]3(C)C[C@@H]23)c2ccc(-c3cnc(C)nc3)cc12` [Compound 18, (1R,3S,5R)-2-(2-(3-Acetyl-5-(2-methylpyrimidin-5-yl)-1H-indazol-1-yl)acetyl)-5-methyl-N—((R)-4-methylpentan-2-yl)-2-azabicyclo[3.1.0]hexane-3-carboxamide]: the IC50 is less than 1000 nM.

Turning to `CC[C@@H](C)NC(=O)[C@@H]1C[C@@]2(C)C[C@H]2N1C(=O)Cn1nc(C(C)=O)c2cc(-c3cnc(C)nc3)ccc21` [Compound 11, (1R,3S,5R)-2-(2-(3-Acetyl-5-(2-methylpyrimidin-5-yl)-1H-indazol-1-yl)acetyl)-N—((R)-sec-butyl)-5-methyl-2-azabicyclo[3.1.0]hexane-3-carboxamide], the 50% inhibitory concentration (IC50) was less than 1000 nM.

For `CC(=O)c1nn(CC(=O)N2[C@H](C(=O)N[C@H](C)C(C)C)C[C@@]3(C)C[C@@H]23)c2ccc(-c3cnc(C)nc3)cc12` [Compound 14, (1R,3S,5R)-2-(2-(3-Acetyl-5-(2-methylpyrimidin-5-yl)-1H-indazol-1-yl)acetyl)-5-methyl-N—((R)-3-methylbutan-2-yl)-2-azabicyclo[3.1.0]hexane-3-carboxamide], the IC50 was less than 1000 nM.

As to `CC(=O)c1nn(CC(=O)N2[C@H](C(=O)Nc3nc(Br)ccc3C)C[C@@]3(C)C[C@@H]23)c2c3c(c(-c4cnc(C)nc4)cc12)CCCO3` [Compound 20], the IC50 was less than 1000 nM.

The same assay, now with this note: Human Factor D 80 nM, substrate Z-L-Lys-SBzl; Table 2; read-out: IC50 (Stars).
Turning to `Cc1ncc(-c2cc(C)c3c(c2)c(C(C)O)cn3CC(=O)N2[C@H](C(=O)Nc3nc(Br)ccc3C)C[C@@]3(C)C[C@@H]23)cn1` (stereo partly drawn) [Compound 191, (1R,3S,5R)—N-(6-bromo-3-methylpyridin-2-yl)-2-(2-(3-(1-hydroxyethyl)-7-methyl-5-(2-methylpyrimidin-5-yl)-1H-indol-1-yl)acetyl)-5-methyl-2-azabicyclo[3.1.0]hexane-3-carboxamide], the IC50 was less than 1000 nM.

On to `COC[C@@]12C[C@@H](C(=O)Nc3nc(C(F)(F)F)ccc3C)N(C(=O)Cn3cc(C(C)=O)c4cc(-c5cnc(C)nc5)cc(C)c43)[C@@H]1C2` [Compound 229, (1R,3S,5S)-2-(2-(3-acetyl-7-methyl-5-(2-methylpyrimidin-5-yl)-1H-indol-1-yl)acetyl)-5-(methoxymethyl)-N-(3-methyl-6-(trifluoromethyl)pyridin-2-yl)-2-azabicyclo[3.1.0]hexane-3-carboxamide], for which the IC50 is less than 1000 nM.

For the compound `CC(=O)c1cn(CC(=O)N2[C@H](C(=O)Nc3nc(C(F)(F)F)ccc3C)C[C@@]3(C)C[C@@H]23)c2c(C)cc(-c3cnc(CO)nc3)cc12` [Compound 161, (1R,3S,5R)-2-(2-(3-acetyl-5-(2-(hydroxymethyl)pyrimidin-5-yl)-7-methyl-1H-indol-1-yl)acetyl)-5-methyl-N-(3-methyl-6-(trifluoromethyl)pyridin-2-yl)-2-azabicyclo[3.1.0]hexane-3-carboxamide], the IC50 is less than 1000 nM.

Consider `CC(=O)c1nn(CC(=O)N2[C@H](C(=O)N[C@H](c3ccccc3)C(F)(F)F)C[C@@]3(C)C[C@@H]23)c2c(C)cc(-c3cnc(C)nc3)cc12` [Compound 86, (1R,3S,5R)-2-{2-[3-acetyl-7-methyl-5-(2-methylpyrimidin-5-yl)indazol-1-yl]acetyl}-5-methyl-N-[(1R)-2,2,2-trifluoro-1-phenylethyl]-2-azabicyclo[3.1.0]hexane-3-carboxamide], for which the IC50 is less than 1000 nM.

In the case of `CC(=O)c1cn(CC(=O)N2[C@H]3CC[C@H](C3)[C@H]2C(=O)Nc2nc(Br)ccc2C)c2c(C)cc(-c3cnc(C)nc3)cc12` [Compound 178, (1S,3S,4R)-2-(2-(3-acetyl-7-methyl-5-(2-methylpyrimidin-5-yl)-1H-indol-1-yl)acetyl)-N-(6-bromo-3-methylpyridin-2-yl)-2-azabicyclo[2.2.1]heptane-3-carboxamide], the IC50 is less than 1000 nM.

In the case of `CC(=O)c1nn(CC(=O)N2[C@H](C(=O)NC(C)Cc3cnccn3)C[C@@]3(C)C[C@@H]23)c2c(C)cc(-c3cnc(C)nc3)cc12` (stereo partly drawn) [Compound 188, (1R,3S,5R)-2-{2-[3-acetyl-7-methyl-5-(2-methylpyrimidin-5-yl)indazol-1-yl]acetyl}-5-methyl-N-[1-(pyrazin-2-yl)propan-2-yl]-2-azabicyclo[3.1.0]hexane-3-carboxamide], the IC50 is less than 1000 nM.

For the compound `CC(=O)c1nn(CC(=O)N2[C@H]3CC[C@H](C3)[C@H]2C(=O)Nc2nc(C(F)(F)F)ccc2C)c2ccc(-c3cnc4cc(C)nn4c3)cc12` [Compound 213, (1S,3S,4R)-2-(2-(3-acetyl-5-(2-methylpyrazolo[1,5-a]pyrimidin-6-yl)-1H-indazol-1-yl)acetyl)-N-(3-methyl-6-(trifluoromethyl)pyridin-2-yl)-2-azabicyclo[2.2.1]heptane-3-carboxamide], the IC50 is less than 1000 nM.

Consider `CC(=O)c1nn(CC(=O)N2[C@H](C(=O)Nc3nc(C(F)(F)F)ccc3C)C[C@@]3(C)C[C@@H]23)c2c(C)cc(-c3cnc(CO)nc3)cc12` [Compound 54, (1R,3S,5R)-2-(2-(3-acetyl-5-(2-(hydroxymethyl)pyrimidin-5-yl)-7-methyl-1H-indazol-1-yl)acetyl)-5-methyl-N-(3-methyl-6-(trifluoromethyl)pyridin-2-yl)-2-azabicyclo[3.1.0]hexane-3-carboxamide], for which the IC50 is less than 1000 nM.

As to `COCc1ncc(-c2cc(C)c3c(c2)c(C(C)=O)nn3CC(=O)N2[C@H](C(=O)Nc3nc(Br)ccc3C)C[C@@]3(C)C[C@@H]23)cn1` [Compound 60, (1R,3S,5R)-2-(2-(3-acetyl-5-(2-(methoxymethyl)pyrimidin-5-yl)-7-methyl-11H-indazol-1-yl)acetyl)-N-(6-bromo-3-methylpyridin-2-yl)-5-methyl-2-azabicyclo[3.1.0]hexane-3-carboxamide], the IC50 was less than 1000 nM.

For `CC(=O)c1nn(CC(=O)N2[C@H](C(=O)Nc3nc(Br)c(F)cc3C)C[C@@]3(C)C[C@@H]23)c2c(C)cc(-c3ccc(CO)nc3)cc12` [Compound 118, (1R,3S,5R)-2-(2-(3-acetyl-5-(6-(hydroxymethyl)pyridin-3-yl)-7-methyl-1H-indazol-1-yl)acetyl)-N-(6-bromo-5-fluoro-3-methylpyridin-2-yl)-5-methyl-2-azabicyclo[3.1.0]hexane-3-carboxamide], the IC50 is less than 1000 nM.

As for `CC(=O)c1nn(CC(=O)N2[C@H](C(=O)N[C@H](CO)Cc3ccccc3)C[C@@]3(C)C[C@@H]23)c2c(C)cc(-c3cnc(C)nc3)cc12` [Compound 146, (1R,3S,5R)-2-{2-[3-acetyl-7-methyl-5-(2-methylpyrimidin-5-yl)indazol-1-yl]acetyl}-N-[(2S)-1-hydroxy-3-phenylpropan-2-yl]-5-methyl-2-azabicyclo[3.1.0]hexane-3-carboxamide], the IC50 was less than 1000 nM.

Regarding `CC(=O)c1nn(CC(=O)N2[C@H](C(=O)Nc3nc(C(F)(F)F)ccc3C)C[C@@]3(C)C[C@@H]23)c2c(C)cc(-c3cnc4c(O)c(C)nn4c3)cc12` [Compound 232, (1R,3S,5R)-2-(2-(3-acetyl-5-(3-hydroxy-2-methylpyrazolo[1,5-a]pyrimidin-6-yl)-7-methyl-1H-indazol-1-yl)acetyl)-5-methyl-N-(3-methyl-6-(trifluoromethyl)pyridin-2-yl)-2-azabicyclo[3.1.0]hexane-3-carboxamide], the half-maximal inhibitory concentration (IC50) was less than 1000 nM.

Consider `Cc1cc(F)c(Br)nc1NC(=O)[C@@H]1[C@@H]2C[C@@H]2CN1C(=O)Cn1nc(C(N)=O)c2cc(-c3cnc(CO)nc3)nc(C)c21` [Compound 168, 1-(2-((1R,2S,5S)-2-((6-bromo-5-fluoro-3-methylpyridin-2-yl)carbamoyl)-3-azabicyclo[3.1.0]hexan-3-yl)-2-oxoethyl)-5-(2-(hydroxymethyl)pyrimidin-5-yl)-7-methyl-1H-pyrazolo[3,4-c]pyridine-3-carboxamide], for which the IC50 was less than 1000 nM.

As for `COC(=O)c1ncc(-c2ccc3c(c2)c(C(C)=O)nn3CC(=O)N2[C@H](C(=O)Nc3nc(Br)ccc3C)C[C@@]3(C)C[C@@H]23)cn1` [Compound 46, methyl 5-(3-acetyl-1-(2-((1R,3S,5R)-3-((6-bromo-3-methylpyridin-2-yl)carbamoyl)-5-methyl-2-azabicyclo[3.1.0]hexan-2-yl)-2-oxoethyl)-1H-indazol-5-yl)pyrimidine-2-carboxylate], the IC50 was less than 1000 nM.

With `CC(=O)c1cn(CC(=O)N2[C@H](C(=O)Nc3nc(C(F)(F)F)ccc3C)C[C@@]3(CF)C[C@@H]23)c2c(C)cc(-c3cnc(C)nc3)cc12` [Compound 234, (1R,3S,5S)-2-(2-(3-acetyl-7-methyl-5-(2-methylpyrimidin-5-yl)-1H-indol-1-yl)acetyl)-5-(fluoromethyl)-N-(3-methyl-6-(trifluoromethyl)pyridin-2-yl)-2-azabicyclo[3.1.0]hexane-3-carboxamide], the IC50 was less than 1000 nM.

Consider `COCc1cc(-c2cnc(C)nc2)cc2c(C(C)=O)cn(CC(=O)N3[C@H](C(=O)Nc4nc(C(F)(F)F)ccc4C)C[C@@]4(C)C[C@@H]34)c12` [Compound 238, (1R,3S,5R)-2-(2-(3-acetyl-7-(methoxymethyl)5-(2-methylpyrimidin-5-yl)-1H-indol-1-yl)acetyl)-5-methyl-N-(3-methyl-6-(trifluoromethyl)pyridin-2-yl)-2-azabicyclo[3.1.0]hexane-3-carboxamide], for which the IC50 is less than 1000 nM.
